Laboratory results published in PMC4453610 (British Journal of Cancer, 2014).

What was measured:
clinical = details: human, plasma, oral
[1] = Pharmacokinetic analysis of sorafenib in plasma of patients; type: in vivo, human; details: compared with previous studies of 400 mg b.i.d. sorafenib
[2] = Day 1 of Cycle 2 vs Day 5 of Cycle 1
[3] = geometric mean, with vs without sorafenib

For O=P1(N(CCCl)CCCl)NCCCO1 (centres unmarked) [cyclophosphamide], the “average decrease in t1/2 when co-administered with sorafenib” value [2] was 27%, the “average decrease of AUC (0–24) when co-administered with sorafenib” value [2] was 29% and the “average reduction of Cmax when co-administered with sorafenib” value [2] was 12%. For the same molecule, the “AUC(0–24) Ratio cycles 2/1, geometric mean” value [3] was 0.71, the “Cmax Ratio cycles 2/1, geometric mean” value [3] was 0.88 and the AUC(0-t) (clinical; AUC(0–24) Cycle 1, geometric mean, Day 5, Cycle 1, without sorafenib) was 16700 ng·h/mL. It also gave an AUC(0-t) (clinical; AUC(0–24) Cycle 2, geometric mean, Day 1, Cycle 2, with 400 mg bid sorafenib) of 11900 ng·h/mL.

For CNC(=O)c1cc(Oc2ccc(NC(=O)Nc3ccc(Cl)c(C(F)(F)F)c3)cc2)ccn1 [sorafenib, Sorafenib], the “circulating concentrations of sorafenib when dosed in combination with cyclophosphamide and letrozole” value [1] was “not significantly affected”.
